PMC6754136 (PLoS ONE, 2019)
Where two headings read alike, the source gives them in different places.

Experiments:
[1] = test system: human PDE5 catalytic domain; design: method as in PMID 16735511; conditions: cited from earlier work
[2] = test system: lysate of COS-7 cells expressing human PDE5; design: method as in PMID 18778098; conditions: cited from earlier work
[3] = mitochondrial viability assay with resazurin; type: cell-based, human; conditions: human, 0.01–10 μM; for viability at 3 days, 10 μM: four cell lines, even at the highest concentration tested (10 μM)
Description: (§1) The human cell lines SH-SY5Y (SY5Y, ATCC CRL-2266), SK-MEL-5 (SKMEL-5, ATCC HTB-70), and NCI-H187 (H187, ATCC CRL-5804) were cultured in RPMI medium supplemented with 10% FBS and no antibiotics. These three cell lines were generously provided by the laboratory of Susan Lindquist via Luke Whitesell (currently at the University of Toronto, Toronto, ON, Canada). BJ-hTERT (described in [27], generously provided by Robert Weinberg, Whitehead Institute, Cambridge MA, USA) was cultured in 4:1 DMEM:M199 medium supplemented with 15% FBS and no antibiotics. All cell lines were grown and assayed at 37 °C, 5% CO2. All cell lines were screened for mycoplasma contamination by PCR (Mycoscope Detection Kit, Fisher Scientific) before use in assays.
(§2) For viability assays, cells were plated in black, clear bottom 384-well tissue culture-treated plates (Corning) and incubated overnight in the media described above but supplemented with 50 U/mL penicillin-streptomycin antibiotic (Life Technologies). Then, DMSO (no drug controls) and PDE5 inhibitors (0.01–10 μM; synthesized as described above or purchased from Selleck Chemicals) were added using a Hewlett-Packard D300 Digital Dispenser (Tecan) and incubated for 3 days. Maximum DMSO concentration was normalized to 0.1% of the total well volume for all wells. Resazurin (R & D Systems) was diluted 1:20 into each well and incubated for up to 4 hours. Fluorescence was read in a Tecan plate reader (excitation = 570 nm, emission = 585 nm). Wells treated with PDE5 inhibitors were normalized against control wells treated with DMSO to measure percent mitochondrial viability (100 = no effect on mitochondrial viability).

human PDE5 = conditions: cited from earlier work
[4] = test system: cavernous smooth muscle cells; design: method as in PMID 17169663; conditions: cells isolated from mice; cited from earlier work
[5] = molecular target: purified recombinant human PDE5 (Homo sapiens, UniProt O76074); experiment: in vitro PDE5 inhibition assay measuring GMP production from cGMP (HPLC-UV-MS); type: biochemical
Description: STRENDA guidelines were considered in the description of the following enzyme activity assays. PDE5 inhibition and kinetics assays were carried out according to the method of Kincaid and Manganiello [31] and Dell’Agli et al. 1 nM recombinant human PDE5 (catalytic domain consisting of amino acids 537–875, Abcam, ab125581) was pre-incubated with PDE5 inhibitors (synthesized in-house as described above or purchased from Selleck Chemicals) in 40 mM tris-hydrochloric acid, pH 7.8, containing 10 mM MgCl2. […]. PDE5 inhibitors were added to each reaction using a Hewlett-Packard D300 Digital Dispenser (Tecan). Maximum DMSO concentration was 0.1% of the final reaction volume for all samples. After incubation at 25 °C for 5 minutes to allow interaction between PDE5 and drugs, the reaction was started with the addition of 0.3 μM cGMP (Enzo Life Sciences, Inc.) and incubated at 25 °C for 15 minutes. The final reaction volume was 100 μL. Reactions were stopped with the addition of 100 μL of 0.1 M HCl and neutralized by adding 0.1 M NaOH until the pH was 7. […] The amount of GMP produced was measured by HPLC-UV-MS as described in the general procedures. Reaction mixture components were separated with a ramp gradient of solvent A and B run at a flow rate of 0.5 mL/min as follows: 0–4 minutes 0% B, 4–7 minutes 0–95% B, 7–8 minutes 95% B, 8–11.1 minutes 0% B. GMP was measured using selected reaction monitoring in positive mode for a centroid center mass of 152.
A calibration curve using known concentrations of GMP was generated using the HPLC-UV-MS method described above to quantify the absolute amount of GMP in each reaction (S13 Fig). The linear range was from 5.9 nM to 3 μM. The limit of detection (LOD), defined as the lowest concentration producing a detectable peak above background, was 0.1 nM. The lower limit of quantification (LLOQ), defined as the lowest concentration used to generate a standard curve with r^2 > 0.95, was 5.9 nM. The upper limit of quantification (ULOQ), defined as the highest concentration used to generate a standard curve with r^2 > 0.95, was 3 μM. A GMP calibration curve was generated with each individual run of the HPLC-UV-MS.
To measure the IC50 as a result of treatment with each icariin analog, the in vitro inhibition enzyme assay as described above was performed, and GMP levels were normalized to no-drug controls and multiplied by 100 to obtain the percent PDE5 activity. IC50 mean ± SEM values were determined by nonlinear-regression fitting of the percent PDE5 activity data using the [inhibitor] vs response–variable slope (four parameters) equation in Prism (version 7.0a and version 8). Top value was constrained to 100, all other parameters were unconstrained. To obtain the dose-response curves for visual confirmation of the best-fit line, we executed a nonlinear regression fitting using the log(inhibitor) vs. response—variable slope (four parameters) equation in Prism. […] AICc analysis (built into Prism) was used to confirm the best-fitting inhibition model. […] Inhibition models were also compared via visual inspection of the fit of the calculated curves on the Michaelis-Menten plots.

[6] = test system: SH-SY5Y, SK-MEL-5, BJ-hTERT and NCI-H187 cell lines; experiment: mitochondrial viability assay with resazurin; type: cell-based, human; conditions: 0.01–10 μM, 3 days
Description: as §1, §2

[7] = molecular target: T1, partially purified recombinant human PDE6C (Homo sapiens, UniProt P51160); experiment: PDE6C inhibition assay (GMP production); type: biochemical
T1 construct: partially purified recombinant full-length human PDE6C; purchased SB Drug Discovery; host or cells: insect cells
Description: PDE6C inhibition was measured using the same method as described for PDE5 with modifications. […] The final reaction volume was 50 μL. […] Reactions were stopped as described above for PDE5 enzyme assays, and GMP was quantified as described above. […] The amount of GMP produced in these samples was subtracted from all samples before normalizing against untreated controls.

PDE6 isoforms = test system: PDE6 isoforms; design: method as in PMID 16780568, PMID 16123402; conditions: cited from earlier work
BJ-hTERT cells = experiment: cellular GMP levels after inhibitor treatment; type: cell-based, human; conditions: 20 μM inhibitor, 1 hour; mean ± SEM; p<0.001
Description: For assaying PDE5 inhibitor effects on GMP levels in a cell line, BJ-hTERT cells were plated in 6-well plates (Corning) in the media described above. When cells were 80% confluent, fresh, pre-warmed media with DMSO (untreated controls) or 20 μM sildenafil, 3, or 7 was added and incubated for 1 hour. Maximum DMSO concentration in all samples was 0.2% of the total well volume. Cells were washed once with cold 0.9% NaCl. 800 μL of 80:20 methanol:water spiked with 500 nM isotopically labeled amino acids as internal standards was added while cells were on dry ice. Cells were detached with a cell scraper. Extracts were vortexed for 10 minutes and centrifuged at maximum speed at 4 °C to remove debris. Extracts were dried down in a vacuum dryer and stored at -80 °C. An additional sample was reserved for visual inspection of cell health by confocal light microscopy and for cell counting with a hemocytometer. Three independent assays were conducted in total, with 1–2 replicates per assay. To analyze GMP levels, samples were reconstituted in 50 μL LC-MS grade water and analyzed by HPLC-UV-MS as described in the general procedures and for enzyme inhibition and kinetics assays. The amino acid standards were analyzed in full scan positive mode with mass windows m/z 50–800. GMP peak areas were normalized to the peak area of the internal standard ^13C4, ^15N-threonine or ^13C6, ^15N3-histidine to account for variations in extraction or resuspension volume. The peak areas were then normalized to the average GMP peak area in undrugged controls and multiplied by 100 to obtain the percent GMP.

T1 sequence (P51160 whole entry): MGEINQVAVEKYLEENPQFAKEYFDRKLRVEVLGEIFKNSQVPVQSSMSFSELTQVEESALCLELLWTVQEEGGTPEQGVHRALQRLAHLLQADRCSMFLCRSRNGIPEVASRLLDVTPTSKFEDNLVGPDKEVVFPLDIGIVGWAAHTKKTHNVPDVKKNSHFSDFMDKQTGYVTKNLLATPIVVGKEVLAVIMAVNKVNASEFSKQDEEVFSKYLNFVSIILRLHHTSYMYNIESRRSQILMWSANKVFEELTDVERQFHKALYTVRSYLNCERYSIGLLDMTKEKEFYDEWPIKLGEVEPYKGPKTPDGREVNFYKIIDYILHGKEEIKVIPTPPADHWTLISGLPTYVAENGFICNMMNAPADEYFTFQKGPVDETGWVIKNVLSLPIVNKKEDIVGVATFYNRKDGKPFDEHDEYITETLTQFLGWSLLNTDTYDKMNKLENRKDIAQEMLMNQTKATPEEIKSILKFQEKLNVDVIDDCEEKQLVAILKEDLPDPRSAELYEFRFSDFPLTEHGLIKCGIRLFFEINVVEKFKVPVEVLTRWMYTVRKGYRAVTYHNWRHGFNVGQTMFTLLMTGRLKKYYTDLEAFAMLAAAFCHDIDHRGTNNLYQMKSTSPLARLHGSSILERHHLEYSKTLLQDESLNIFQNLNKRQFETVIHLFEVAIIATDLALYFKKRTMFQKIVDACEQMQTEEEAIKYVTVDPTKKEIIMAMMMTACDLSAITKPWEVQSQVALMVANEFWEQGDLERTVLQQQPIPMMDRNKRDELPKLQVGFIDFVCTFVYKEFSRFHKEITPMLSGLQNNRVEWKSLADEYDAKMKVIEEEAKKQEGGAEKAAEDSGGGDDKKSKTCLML

Question: With Icariside II [Compound 1] as the molecule, how does the “mode of inhibition suggested by the crystal structure” value [1] read?
Answer: The value was “binds to the active site as a competitive inhibitor”.

Question: And the “fold improvement in PDE5 inhibition compared to icariin” value [2]?
Answer: The value was 34 fold.

Question: And the IC50 ([2]; lysate of COS-7 cells expressing human PDE5)?
Answer: Its IC50 is 160 nM.

Question: Which viability at 3 days, 10 μM [3] does the source give for `COc1ccc(-c2oc3c(CC=C(C)C)c(O[C@@H]4O[C@H](CO)[C@@H](O)[C@H](O)[C@H]4O)cc(O)c3c(=O)c2O[C@@H]2O[C@@H](C)[C@H](O)[C@@H](O)[C@H]2O)cc1` [icariin] here?
Answer: The viability at 3 days, 10 μM was > 70%.

Question: And the mode of inhibition (human PDE5)?
Answer: The mode of inhibition was “competitively inhibit PDE5”.

Question: And the IC50 (human PDE5; human PDE5)?
Answer: Its IC50 is 1000 to 6000 nM.

Question: And the “effect on cGMP levels” value [4]?
Answer: Its value is “increase cGMP levels”.

Question: What about the IC50 [5] of the same molecule?
Answer: The IC50 was 6000 ± 1000 nM.

Question: With `COc1ccc(-c2oc3c(CC=C(C)C)c(O)cc(O)c3c(=O)c2OCCO)cc1` [Compound 6, 3-O-(2-Hydroxyethyl)-Icaritin] as the molecule, how does the “effect on viability across cell lines” value [6] read?
Answer: The value was “marked reduction in viability of all four cell lines”.

Question: And the viability at 3 days ([3]; marked reduction in at least one cell line)?
Answer: The viability at 3 days was ≤ 70%.

Question: What about the IC50 ([5]; 1 nM PDE5 catalytic domain, 0.3 μM cGMP, 25 °C, 15 min, mean of at least three replicates ± SEM, read-out: IC50) of the same molecule?
Answer: The IC50 was 400 ± 200 nM.

Question: And the “Fold improved potency (fold change in IC50 compared to icariin)” value ([5]; relative to icariin)?
Answer: Its value is 15 fold.

Question: With `CCCc1nn(C)c2c(=O)[nH]c(-c3cc(S(=O)(=O)N4CCN(C)CC4)ccc3OCC)nc12` [sildenafil, reference compound] as the molecule, how does the “PDE6C inhibition, statistical significance” value ([7]; at 50x the PDE5 IC50, vs theoretical uninhibited mean of 100%) read?
Answer: The value was “do not show any statistically significant PDE6C inhibition”.

Question: And the “% PDE6C activity remaining” value ([7]; inhibitor at 50x its PDE5 IC50 (sildenafil 1.5 μM, 3 and 7 5 μM), 14 μM cGMP, 1 hour, mean ± SEM)?
Answer: Its value is 78 ± 13%.

Question: And the viability at 3 days, 10 μM [3]?
Answer: The viability at 3 days, 10 μM was > 70%.

Question: And the “inhibition of PDE6 isoforms” value (PDE6 isoforms)?
Answer: Its value is “show inhibition of PDE6 isoforms”.

Question: And the “cellular GMP concentration, % of the GMP concentration in untreated control cells” value (BJ-hTERT cells)?
Answer: The value was 7 ± 1%.
